Source: PubChem BioAssay AID248 (DTP/NCI, 2004)
Where “and” joins values, the source holds several entries; their conditions need not be identical. Equal entries are not always repeated. Toxic doses and inconclusive results are not listed. Rule as the data show it: active = T/C of 150% or more; inactive = T/C below 125%.

Test system: L1210 leukemia ip in BDF1 mice, survival T/C
Test: NCI In Vivo Anticancer Drug Screen. Data for tumor model L1210 Leukemia (intraperitoneal) in B6D2F1 (BDF1) mice
Details: endpoint: mean survival time, higher = longer survival
In short: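 Transplantable tumor model; survival measured in treated vs vehicle control mice. Value = treated/control.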

[1] = dose: 100.0 mg/kg/injection, schedule: Q01DX001 (ip), vehicle: saline
[2] = dose: 200.0 mg/kg/injection, schedule: Q01DX001 (ip), vehicle: saline
[3] = dose: 400.0 mg/kg/injection, schedule: Q01DX001 (ip), vehicle: saline
[4] = dose: 100.0 mg/kg/injection, schedule: Q01DX009 (ip), vehicle: saline with Tween-80
[5] = dose: 200.0 mg/kg/injection, schedule: Q01DX009 (ip), vehicle: saline with Tween-80
[6] = dose: 400.0 mg/kg/injection, schedule: Q01DX009 (ip), vehicle: saline with Tween-80
[7] = dose: 100.0 mg/kg/injection, schedule: Q01DX009 (ip), vehicle: Klucel (hydroxypropylcellulose) (HPC)
[8] = dose: 200.0 mg/kg/injection, schedule: Q01DX009 (ip), vehicle: Klucel (hydroxypropylcellulose) (HPC)
[9] = dose: 100.0 mg/kg/injection, schedule: Q01DX001 (ip), vehicle: carboxymethylcellulose (CMC)
[10] = dose: 100.0 mg/kg/injection, schedule: Q04DX003 (ip), vehicle: saline with Tween-80
[11] = dose: 200.0 mg/kg/injection, schedule: Q04DX003 (ip), vehicle: saline with Tween-80
[12] = dose: 400.0 mg/kg/injection, schedule: Q04DX003 (ip), vehicle: saline with Tween-80

Measured: T/C

CCc1occ(C(=O)OC)c1C1SCCS1
inactive: [1] 92 % of control | [2] 97 % of control | [3] 91 % of control

CC1Oc2ccccc2OC1CN1CCC2(CC1)C(=O)N(C)CN2c1ccccc1 (stereo not given)
inactive: dose: 100.0 mg/kg/injection, schedule: Q01DX001 (ip), vehicle: Klucel (hydroxypropylcellulose) (HPC) 88 % of control | dose: 200.0 mg/kg/injection, schedule: Q01DX001 (ip), vehicle: Klucel (hydroxypropylcellulose) (HPC) 99 % of control | dose: 400.0 mg/kg/injection, schedule: Q01DX001 (ip), vehicle: Klucel (hydroxypropylcellulose) (HPC) 86 % of control

CCCCN1c2ccccc2NP1(=S)c1ccccc1 (stereo not given)
inactive: dose: 100.0 mg/kg/injection, schedule: Q04DX002 (ip), vehicle: DMSO 93 % of control | dose: 200.0 mg/kg/injection, schedule: Q04DX002 (ip), vehicle: DMSO 101 % of control

C#CCn1c2ccccc2c2ccccc21
inactive: [1] 97 % of control | [4] 95 % of control | [2] 103 % of control | [5] 101 % of control | [3] 103 % of control | [6] 96 % of control

CCCCCCC(CC)NCCO (stereo not given)
inactive: dose: 75.0 mg/kg/injection, schedule: Q01DX001 (ip), vehicle: saline 96 % of control

Cc1cc(=O)[nH]c2c(OCOc3cccc4c(C)cc(=O)[nH]c34)cccc12
inactive: dose: 100.0 mg/kg/injection, schedule: Q04DX003 (ip), vehicle: Klucel (hydroxypropylcellulose) (HPC) 97 % of control | dose: 200.0 mg/kg/injection, schedule: Q04DX003 (ip), vehicle: Klucel (hydroxypropylcellulose) (HPC) 100 % of control | dose: 400.0 mg/kg/injection, schedule: Q04DX003 (ip), vehicle: Klucel (hydroxypropylcellulose) (HPC) 94 % of control

Cc1ccccc1-c1c2ccccc2c2ccccc2[n+]1[O-]
inactive: dose: 50.0 mg/kg/injection, schedule: Q01DX009 (ip), vehicle: Klucel (hydroxypropylcellulose) (HPC) 101 % of control | [7] 101 % of control | [8] 108 % of control

CCCC[n+]1cccc2ccccc21
inactive: dose: 25.0 mg/kg/injection, schedule: Q01DX001 (ip), vehicle: Klucel (hydroxypropylcellulose) (HPC) 105 % of control | dose: 50.0 mg/kg/injection, schedule: Q01DX001 (ip), vehicle: Klucel (hydroxypropylcellulose) (HPC) 100 % of control | [9] 96 % of control

Cc1cccc(NC(=O)NCCOC(=O)OCCNC(=O)Nc2cccc(C)c2C)c1C
inactive: [4] 97 % of control | [10] 91 % of control | [5] 98 % of control | [11] 91 % of control | [6] 97 % of control | [12] 106 % of control

O=C(COc1ccc(Cl)cc1Cl)Nc1cc(Cl)ccc1Cl
inactive: dose: 100.0 mg/kg/injection, schedule: Q04DX002 (ip), vehicle: gum acacia 95 % of control | dose: 200.0 mg/kg/injection, schedule: Q04DX002 (ip), vehicle: gum acacia 95 % of control | dose: 400.0 mg/kg/injection, schedule: Q04DX002 (ip), vehicle: gum acacia 100 % of control

CCCOP(=O)(OCCC)C(OC(=O)C(C)(C)SC(=S)CCC)=C(C)C
inactive: [10] 97 % of control | [11] 100 % of control | [12] 94 % of control

CC(=O)Nc1ccc2c(c1)C(=Nc1ccccc1)c1ccccc1-2
inactive: [10] 91 % of control | [11] 91 % of control | [12] 91 % of control

Brc1ccc(N=Cc2ccc3c(c2)OCO3)cc1
inactive: dose: 100.0 mg/kg/injection, schedule: Q04DX003 (ip), vehicle: gum acacia 96 % of control | dose: 200.0 mg/kg/injection, schedule: Q04DX003 (ip), vehicle: gum acacia 95 % of control | dose: 400.0 mg/kg/injection, schedule: Q04DX003 (ip), vehicle: gum acacia 90 % of control

CCN(CC)Cc1cc(Cl)cc(Cc2cc(Cl)cc(CN(CC)CC)c2O)c1O
inactive: dose: 200.0 mg/kg/injection, schedule: Q04DX003 (ip), vehicle: acetone 109 % of control | dose: 400.0 mg/kg/injection, schedule: Q04DX003 (ip), vehicle: acetone 98 % of control

CN1CCN(C(=O)C2C(c3ccccc3)C2c2ccc(Cl)c(Cl)c2)CC1 (stereo not given)
inactive: dose: 12.5 mg/kg/injection, schedule: Q04DX002 (ip), vehicle: saline with Tween-80 95 % of control and 98 % of control | dose: 25.0 mg/kg/injection, schedule: Q04DX002 (ip), vehicle: saline with Tween-80 103 % of control | dose: 50.0 mg/kg/injection, schedule: Q04DX002 (ip), vehicle: saline with Tween-80 92 % of control and 88 % of control

CCOC(=O)C1=NN(c2ccccc2)C(=O)C1N=Nc1ccc(S(=O)(=O)Nc2cc(C)nc(C)n2)cc1 (stereo not given)
inactive: [1] 101 % of control | [2] 102 % of control | [3] 96 % of control

O=C(O)c1c(Br)c(Br)c(Br)c(Br)c1C(=O)O
inactive: dose: 100.0 mg/kg/injection, schedule: Q04DX002 (ip), vehicle: saline 107 % of control | dose: 200.0 mg/kg/injection, schedule: Q04DX002 (ip), vehicle: saline 110 % of control | dose: 400.0 mg/kg/injection, schedule: Q04DX002 (ip), vehicle: saline 103 % of control

Cc1ccc(S(=O)(=O)O)cc1.[Ag]
inactive: dose: 25.0 mg/kg/injection, schedule: Q04DX002 (ip), vehicle: saline + alcohol 92 % of control | dose: 50.0 mg/kg/injection, schedule: Q04DX002 (ip), vehicle: saline + alcohol 96 % of control

CCCCCCc1ccc2c(c1)CC(CCCC)C2 (stereo not given)
inactive: dose: 50.0 mg/kg/injection, schedule: Q01DX001 (ip), vehicle: saline 101 % of control | [1] 104 % of control | [2] 98 % of control | [3] 101 % of control

COC(=O)Cc1ccccc1OC
inactive: dose: 50.0 mg/kg/injection, schedule: Q01DX009 (ip), vehicle: saline with Tween-80 87 % of control | [4] 87 % of control | [5] 87 % of control

CC(=O)Nc1ccc(S(=O)(=O)Nc2cc(C)ccc2C)cc1
inactive: [7] 94 % of control | [8] 103 % of control | dose: 400.0 mg/kg/injection, schedule: Q01DX009 (ip), vehicle: Klucel (hydroxypropylcellulose) (HPC) 103 % of control

COC(=O)c1ccc(N(C)CCC(=O)CN)cc1
inactive: [1] 98 % of control | [2] 101 % of control | [3] 104 % of control

O=C1CSC(=S)N1/N=C/c1c[nH]c2ccc(Br)cc12
inactive: dose: 75.0 mg/kg/injection, schedule: Q01DX001 (ip), vehicle: carboxymethylcellulose (CMC) 100 % of control | dose: 150.0 mg/kg/injection, schedule: Q01DX001 (ip), vehicle: carboxymethylcellulose (CMC) 97 % of control

Nc1cc(Cl)cc2c1-c1ccc(Cl)cc1/C2=N\O
inactive: [9] 100 % of control | dose: 200.0 mg/kg/injection, schedule: Q01DX001 (ip), vehicle: carboxymethylcellulose (CMC) 97 % of control | dose: 400.0 mg/kg/injection, schedule: Q01DX001 (ip), vehicle: carboxymethylcellulose (CMC) 97 % of control

CC12CCC(O)CC1CCC1C3CC/C(=C\c4ccco4)C(=O)C3(CCC#N)CCC12 (stereo not given)
inactive: dose: 100.0 mg/kg/injection, schedule: Q01DX001 (sc), vehicle: steriod suspending solution 108 % of control | dose: 200.0 mg/kg/injection, schedule: Q01DX001 (sc), vehicle: steriod suspending solution 106 % of control | dose: 400.0 mg/kg/injection, schedule: Q01DX001 (sc), vehicle: steriod suspending solution 106 % of control

Nc1ncnc2c1ncn2C1CC(O)C(O)CO1 (stereo not given)
inactive: [1] 105 % of control | [2] 106 % of control | [3] 105 % of control

CCCCOC(=O)c1ccc(NC(=O)C(Cl)Cl)cc1
inactive: dose: 100.0 mg/kg/injection, schedule: Q04DX003 (ip), vehicle: saline 99 % of control | dose: 200.0 mg/kg/injection, schedule: Q04DX003 (ip), vehicle: saline 89 % of control | dose: 400.0 mg/kg/injection, schedule: Q04DX003 (ip), vehicle: saline 89 % of control

O=Cc1ccc(/C=C2\C=Cc3ccccc32)cc1
inactive: [10] 93 % of control | [11] 91 % of control | [12] 92 % of control
